Laboratory results published in PubChem BioAssay AID248 (DTP/NCI, 2004).
Several values for one entry are separate records, joined by “and”; a condition that tells them apart may be missing. Equal entries are not always repeated. Inconclusive results and toxic doses are left out.

Tested on: L1210 leukemia ip in BDF1 mice, survival T/C
Experiment: NCI In Vivo Anticancer Drug Screen. Data for tumor model L1210 Leukemia (intraperitoneal) in B6D2F1 (BDF1) mice
Details: endpoint: mean survival time, higher = longer survival
In short: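 Mice bearing the transplanted tumor received compound or vehicle. Survival of the treated group was divided by that of the vehicle-treated control group to give the ratio.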

[1] = dose: 100.0 mg/kg/injection, schedule: Q01DX001 (ip), vehicle: gum acacia
[2] = dose: 200.0 mg/kg/injection, schedule: Q01DX001 (ip), vehicle: gum acacia
[3] = dose: 400.0 mg/kg/injection, schedule: Q01DX001 (ip), vehicle: gum acacia
[4] = dose: 25.0 mg/kg/injection, schedule: Q01DX009 (ip), vehicle: saline with Tween-80
[5] = dose: 50.0 mg/kg/injection, schedule: Q01DX009 (ip), vehicle: saline with Tween-80
[6] = dose: 100.0 mg/kg/injection, schedule: Q01DX009 (ip), vehicle: saline with Tween-80
[7] = dose: 200.0 mg/kg/injection, schedule: Q01DX009 (ip), vehicle: saline with Tween-80
[8] = dose: 400.0 mg/kg/injection, schedule: Q01DX009 (ip), vehicle: saline with Tween-80
[9] = dose: 100.0 mg/kg/injection, schedule: Q01DX009 (ip), vehicle: Klucel (hydroxypropylcellulose) (HPC)
[10] = dose: 100.0 mg/kg/injection, schedule: Q04DX003 (ip), vehicle: saline
[11] = dose: 200.0 mg/kg/injection, schedule: Q04DX003 (ip), vehicle: saline
[12] = dose: 100.0 mg/kg/injection, schedule: Q04DX003 (ip), vehicle: Klucel (hydroxypropylcellulose) (HPC)
[13] = dose: 200.0 mg/kg/injection, schedule: Q01DX009 (ip), vehicle: Klucel (hydroxypropylcellulose) (HPC)
[14] = dose: 200.0 mg/kg/injection, schedule: Q04DX003 (ip), vehicle: Klucel (hydroxypropylcellulose) (HPC)
[15] = dose: 400.0 mg/kg/injection, schedule: Q04DX003 (ip), vehicle: Klucel (hydroxypropylcellulose) (HPC)
[16] = dose: 100.0 mg/kg/injection, schedule: Q01DX001 (ip), vehicle: saline
[17] = dose: 200.0 mg/kg/injection, schedule: Q01DX001 (ip), vehicle: saline
[18] = dose: 100.0 mg/kg/injection, schedule: Q01DX001 (ip), vehicle: carboxymethylcellulose (CMC)
[19] = dose: 200.0 mg/kg/injection, schedule: Q01DX001 (ip), vehicle: carboxymethylcellulose (CMC)
[20] = dose: 400.0 mg/kg/injection, schedule: Q01DX001 (ip), vehicle: carboxymethylcellulose (CMC)
[21] = dose: 50.0 mg/kg/injection, schedule: Q01DX001 (ip), vehicle: carboxymethylcellulose (CMC)
[22] = dose: 50.0 mg/kg/injection, schedule: Q01DX001 (ip), vehicle: saline
[23] = dose: 400.0 mg/kg/injection, schedule: Q01DX001 (ip), vehicle: saline

With `CCCOP(=S)(N1CC1(C)C)N1CC1(C)C` (stereo not given) the T/C (dose: 3.0 mg/kg/injection, schedule: Q01DX015 (ip), vehicle: carboxymethylcellulose (CMC)) was 112 % of control, the T/C (dose: 6.0 mg/kg/injection, schedule: Q01DX015 (ip), vehicle: carboxymethylcellulose (CMC)) was 105 % of control and the T/C (dose: 12.0 mg/kg/injection, schedule: Q01DX015 (ip), vehicle: carboxymethylcellulose (CMC)) was 106 % of control. The T/C (dose: 25.0 mg/kg/injection, schedule: Q01DX015 (ip), vehicle: carboxymethylcellulose (CMC)) was 110 % of control, the T/C (dose: 44.0 mg/kg/injection, schedule: Q01DX Z (ip), vehicle: carboxymethylcellulose (CMC)) was 103 % of control and the T/C (dose: 50.0 mg/kg/injection, schedule: Q01DX015 (ip), vehicle: carboxymethylcellulose (CMC)) was 115 % of control. The T/C (dose: 67.0 mg/kg/injection, schedule: Q01DX Z (ip), vehicle: carboxymethylcellulose (CMC)) was 113 % of control, the T/C (dose: 100.0 mg/kg/injection, schedule: Q01DX015 (ip), vehicle: carboxymethylcellulose (CMC)) was 151 % of control and the T/C (dose: 100.0 mg/kg/injection, schedule: Q01DX Z (ip), vehicle: carboxymethylcellulose (CMC)) was 111 % of control. The T/C (dose: 150.0 mg/kg/injection, schedule: Q01DX Z (ip), vehicle: carboxymethylcellulose (CMC)) was 122 % of control.

For `O=[N+]([O-])c1ccc(OCc2ccc(Cl)c(S(=O)(=O)F)c2)c(Cl)c1`, the T/C [1] was 102 % of control, the T/C [2] was 102 % of control and the T/C [3] was 98 % of control.

`Cc1ccc(NCc2ccccc2)cc1` was tested, and the T/C (dose: 100.0 mg/kg/injection, schedule: Q04DX003 (ip), vehicle: other) was 112 % of control and the T/C (dose: 200.0 mg/kg/injection, schedule: Q04DX003 (ip), vehicle: other) was 92 % of control.

For `COC(=O)c1ccc(Cl)c(Cl)c1`, the T/C [4] was 110 % of control, the T/C [5] was 104 % of control and the T/C [6] was 107 % of control. The T/C [7] was 100 % of control and the T/C [8] was 102 % of control.

For `C=CCOCCC(=O)OCC=C`, the T/C (dose: 50.0 mg/kg/injection, schedule: Q01DX009 (ip), vehicle: Klucel (hydroxypropylcellulose) (HPC)) was 95 % of control, the T/C [9] was 92 % of control and the T/C [10] was 103 % of control. The T/C [11] was 103 % of control.

`Cc1ccc(C)c(NC(=O)Nc2ccccc2C)c1` was tested, and the T/C [9] was 88 % of control, the T/C [12] was 86 % of control and the T/C [13] was 101 % of control and 90 % of control. The T/C [14] was 89 % of control and the T/C [15] was 89 % of control.

With `CN=C1CN(O)C(c2ccccc2)=c2cc(Cl)ccc2=N1` the T/C (dose: 25.0 mg/kg/injection, schedule: Q01DX009 (ip), vehicle: acetone) was 96 % of control, the T/C (dose: 25.0 mg/kg/injection, schedule: Q04DX003 (ip), vehicle: saline) was 97 % of control and the T/C (dose: 50.0 mg/kg/injection, schedule: Q01DX009 (ip), vehicle: acetone) was 90 % of control. For the same compound, the T/C (dose: 50.0 mg/kg/injection, schedule: Q04DX003 (ip), vehicle: saline) was 97 % of control, the T/C [16] was 92 % of control and the T/C (dose: 100.0 mg/kg/injection, schedule: Q01DX009 (ip), vehicle: acetone) was 102 % of control. The T/C [10] was 92 % of control, the T/C [17] was 96 % of control and the T/C (dose: 200.0 mg/kg/injection, schedule: Q01DX009 (ip), vehicle: acetone) was 97 % of control. The T/C [11] was 97 % of control.

With `CCc1ccc(N=Nc2ccc(N(C)C)cc2)cc1` the T/C (dose: 50.0 mg/kg/injection, schedule: Q04DX003 (ip), vehicle: Klucel (hydroxypropylcellulose) (HPC)) was 93 % of control, the T/C [18] was 110 % of control and the T/C [12] was 96 % of control. The T/C [19] was 89 % of control, the T/C [14] was 96 % of control and the T/C [20] was 101 % of control.

`O=C(Nc1cc([N+](=O)[O-])ccc1F)Nc1ccccc1C(F)(F)F` was tested, and the T/C [12] was 96 % of control, the T/C [14] was 94 % of control and the T/C [15] was 91 % of control.

`O=C(C[n+]1ccccc1)N/N=C/c1ccccc1Cl` was tested, and the T/C [4] was 98 % of control, the T/C [5] was 98 % of control and the T/C [6] was 100 % of control.

For `C(=Nc1cnc2ccccc2c1)c1ccnc2ccccc12`, the T/C [21] was 95 % of control, the T/C [18] was 104 % of control and the T/C [19] was 107 % of control. The T/C [20] was 95 % of control.

In the case of `COc1ccc(C(=S)N(CC(C)C)c2ccccc2)cc1`, the T/C [12] is reported as 94 % of control, the T/C [14] is reported as 95 % of control and the T/C [15] is reported as 94 % of control.

For `Cc1ccc(NC(=O)NCC(=O)O)cc1`, the T/C [18] was 101 % of control, the T/C [19] was 97 % of control and the T/C [20] was 109 % of control.

`CCCCCCCCCCCCCCCCOc1ccccc1C(C)=O` was tested, and the T/C [6] was 92 % of control, the T/C (dose: 100.0 mg/kg/injection, schedule: Q04DX003 (ip), vehicle: saline with Tween-80) was 89 % of control and the T/C [7] was 96 % of control. For the same compound, the T/C (dose: 200.0 mg/kg/injection, schedule: Q04DX003 (ip), vehicle: saline with Tween-80) was 98 % of control, the T/C [8] was 93 % of control and the T/C (dose: 400.0 mg/kg/injection, schedule: Q04DX003 (ip), vehicle: saline with Tween-80) was 93 % of control.

In the case of `CC1(C)OC(=O)C(=Cc2cccc3ccc4ccccc4c23)C(=O)O1`, the T/C [1] is reported as 100 % of control, the T/C [2] is reported as 97 % of control and the T/C [3] is reported as 101 % of control.

With `OCC1OC(n2cnc3cncnc32)C(O)C1O` (stereo not given) the T/C (dose: 1.9 mg/kg/injection, schedule: Q01DX015 (ip), vehicle: saline) was 108 % of control, the T/C (dose: 2.5 mg/kg/injection, schedule: Q01DX015 (ip), vehicle: saline) was 104 % of control and the T/C (dose: 2.8 mg/kg/injection, schedule: Q01DX015 (ip), vehicle: saline) was 151 % of control. For the same compound, the T/C (dose: 4.3 mg/kg/injection, schedule: Q01DX015 (ip), vehicle: saline) was 110 % of control, the T/C (dose: 5.0 mg/kg/injection, schedule: Q01DX015 (ip), vehicle: saline) was 106 % of control and the T/C (dose: 6.5 mg/kg/injection, schedule: Q01DX015 (ip), vehicle: saline) was 108 % of control. The T/C (dose: 9.7 mg/kg/injection, schedule: Q01DX015 (ip), vehicle: saline) was 112 % of control, the T/C (dose: 10.0 mg/kg/injection, schedule: Q01DX015 (ip), vehicle: saline) was 118 % of control and the T/C (dose: 20.0 mg/kg/injection, schedule: Q01DX015 (ip), vehicle: saline) was 93 % of control. For the same compound, the T/C [22] was 117 % of control and 122 % of control and the T/C [16] was 123 % of control.

With `Cn1c2ccccc2c(=O)c2ccccc21` the T/C [16] was 117 % of control, the T/C [17] was 101 % of control and the T/C [23] was 101 % of control.

For `O=S(=O)(Nc1ccccc1F)c1ccc2ccccc2c1`, the T/C (dose: 100.0 mg/kg/injection, schedule: Q01DX009 (ip), vehicle: saline) was 93 % of control, the T/C (dose: 200.0 mg/kg/injection, schedule: Q01DX009 (ip), vehicle: saline) was 93 % of control and the T/C (dose: 400.0 mg/kg/injection, schedule: Q01DX009 (ip), vehicle: saline) was 98 % of control.

`O=S(=O)(O)CCS(=O)(=O)O` was tested, and the T/C [21] was 97 % of control, the T/C [18] was 100 % of control and the T/C [19] was 97 % of control. The T/C [20] was 97 % of control.

`Cc1ccc(S(=N)(=O)C2CC2)cc1` (stereo not given) was tested, and the T/C [16] was 95 % of control, the T/C [17] was 93 % of control and the T/C [23] was 103 % of control.

`Cc1n[nH]c(=S)[nH]c1=O` was tested, and the T/C [22] was 100 % of control, the T/C [16] was 100 % of control and the T/C [17] was 100 % of control. The T/C [23] was 94 % of control.

In the case of `OC1C2CCN(CC2)C1C(c1ccccc1)c1ccc(F)cc1` (stereo not given), the T/C (dose: 100.0 mg/kg/injection, schedule: Q04DX002 (ip), vehicle: Klucel (hydroxypropylcellulose) (HPC)) is reported as 91 % of control and the T/C (dose: 200.0 mg/kg/injection, schedule: Q04DX002 (ip), vehicle: Klucel (hydroxypropylcellulose) (HPC)) is reported as 87 % of control.

`Cc1cc(C)c(NC(=O)Nc2cccc(Cl)c2)c(C)c1` was tested, and the T/C [9] was 100 % of control, the T/C [12] was 101 % of control and the T/C [13] was 105 % of control. The T/C [14] was 94 % of control and the T/C [15] was 89 % of control.
